Common to all, as to experiment: growth of human tumour cells (NCI), 48 h
In experiment [1] the test system is 786-0.
Experiment [2] deals with A549.
Experiment [3] has as its system ACHN.
Experiment [4] relates to HOP-92.
For experiment [5], the system named is HT-29.
Experiment [6] relates to M14.
The test system of experiment [7] is MCF7.
In experiment [8] the test system is MDA-MB-231.
For experiment [9], the system named is MOLT-4.
Experiment [10] concerns NCI-H226.
In experiment [11] the test system is NCI-H23.
The test system of experiment [12] is NCI-H522.
Experiment [13] relates to OVCAR-8.
Experiment [14] concerns SF-268.
Experiment [15] deals with SF-295.
Experiment [16] concerns SF-539.
The subject of experiment [17] is SNB-75.
The test system of experiment [18] is SW-620.
For experiment [19], the system named is UO-31.

Each structure is given as a SMILES string.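 A five-concentration, 48-hour dose response in 96-well plates underlies each endpoint, interpolated linearly between surrounding concentrations. GI50 = concentration required for 50% inhibition of growth.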 Active and inactive are the calls of the source. Rule as the data show it: active = GI50 up to about 1.1 µM and inactive = higher.

With `O=C1C([N-]S(=O)(=O)c2ccccc2)=C([n+]2ccc(Cc3ccccc3)cc2)C(=O)c2ccccc21`, the GI50 was 1.73 µM (inactive) in experiment [1]; 1.92 µM (inactive) in [2]; 1.79 µM (inactive) in [3]; 2.72 µM (inactive) in experiment [4]; 0.263 µM (active) in [5]; 1.32 µM (inactive) in experiment [6]. Moreover, the GI50 in [7] is 0.435 µM (active); in [8] it was 2.56 µM (inactive); in [9], 1.81 µM (inactive); in experiment [10], 1.67 µM (inactive); in experiment [11], 0.284 µM (active); in [12], 0.614 µM (active). Besides, the GI50 was 2.04 µM (inactive) in [13]; 1.71 µM (inactive) in experiment [14]; 1.79 µM (inactive) in [15]; 1.79 µM (inactive) in [16]; 1.31 µM (inactive) in [17]; 0.641 µM (active) in experiment [18]. For the same molecule, the GI50 in [19] is 2.13 µM (inactive).
For the molecule `Cc1ccc([C@@H]2[C@@H](C(=O)c3ccccn3)[C@H](c3ccc(C)cc3)C[C@](O)(c3ccccn3)[C@H]2C(=O)c2ccccn2)cc1`, the GI50 is 1.81 µM (inactive) in experiment [1]; 2.77 µM (inactive) in experiment [2]; 2.51 µM (inactive) in [3]; 4.61 µM (inactive) in [4]; 2.97 µM (inactive) in experiment [5]; 1.31 µM (inactive) in experiment [6]. Moreover, the GI50 was 4.86 µM (inactive) in experiment [7]; > 32 µM (inactive) in [8]; 2.07 µM (inactive) in experiment [9]; 4.1 µM (inactive) in experiment [10]; 18.8 µM (inactive) in experiment [11]; 32.8 µM (inactive) in experiment [12]. The GI50 in experiment [13] is 3.33 µM (inactive); in experiment [14], 0.946 µM (active); in experiment [15], 4.21 µM (inactive); in experiment [16], 2.08 µM (inactive); in [17], 3.33 µM (inactive); in experiment [18], > 22.6 µM (inactive). For the same molecule, in [19], the GI50 is 2.32 µM (inactive).
On to `Cc1ccc(S(=O)(=O)NC(=O)NC(C(=O)O)C(C)O)cc1` (stereo unspecified), for which the GI50 in experiment [1], in experiment [2], in experiment [3], in experiment [4], in experiment [5] and in experiment [6] was > 100 µM (inactive) in each case. Further, the GI50 in experiment [7], in experiment [8], in experiment [9], in [11], in [12] and in experiment [13] was > 100 µM (inactive) throughout. Further, the GI50 in experiment [14] is > 100 µM (inactive); in [15], > 100 µM (inactive); in experiment [16], > 100 µM (inactive); in [17], 33.3 µM (inactive); in experiment [18], > 100 µM (inactive); in experiment [19], > 100 µM (inactive).
`CCOC(=O)/C=C(\C(=O)OCC)n1ccc(N)nc1=O`: the GI50 in experiment [1] was > 100 µM (inactive); in experiment [2], > 100 µM (inactive); in [3], > 100 µM (inactive); in [4], 57.4 µM (inactive); in [5], 52.2 µM (inactive); in [6] it was > 100 µM (inactive). For the same molecule, the GI50 in [7] was > 100 µM (inactive); in experiment [8], > 100 µM (inactive); in [9] it was 97.1 µM (inactive); in experiment [10] it was > 100 µM (inactive); in experiment [11] it was > 100 µM (inactive); in [12], 18.2 µM (inactive). Also, the GI50 is > 100 µM (inactive) in [13]; > 99.8 µM (inactive) in experiment [14]; > 100 µM (inactive) in experiment [15]; > 100 µM (inactive) in experiment [16]; > 100 µM (inactive) in experiment [17]; 56.4 µM (inactive) in experiment [18]. Also, in experiment [19], the GI50 was > 100 µM (inactive).
As to `C#C[C@]1(O)CC[C@H]2[C@@H]3CCC4=C/C(=N/NC(=O)c5cccc6c(=O)c7ccccc7[nH]c56)CCC4[C@H]3CC[C@@]21C` (stereo partly specified), the GI50 in experiment [1] was 35.6 µM (inactive); in experiment [2], 60.3 µM (inactive); in [3], 65.6 µM (inactive); in experiment [4] it was > 100 µM (inactive); in experiment [5], 30.3 µM (inactive); in experiment [6], 59.8 µM (inactive). Moreover, the GI50 is 43.4 µM (inactive) in experiment [7]; > 100 µM (inactive) in experiment [8]; 24.1 µM (inactive) in [9]; 73.8 µM (inactive) in experiment [10]; 27.1 µM (inactive) in [11]; 15.8 µM (inactive) in experiment [12]. Further, the GI50 in experiment [13] is 21.3 µM (inactive); in experiment [14] it was > 100 µM (inactive); in experiment [15] it was 43.4 µM (inactive); in experiment [16] it was 34.7 µM (inactive); in experiment [17] it was 15 µM (inactive); in experiment [18] it was 49.8 µM (inactive). Further, the GI50 in experiment [19] is 20.5 µM (inactive).
Take `COc1ccc(N[C@H]([C@@H](c2ccccc2)[S+]([O-])c2ccc(C)cc2)C(F)(F)F)cc1` (stereo partly specified): the GI50 is 39 µM (inactive) in experiment [1]; 32.7 µM (inactive) in [2]; 35 µM (inactive) in experiment [3]; 34 µM (inactive) in [4]; 31.8 µM (inactive) in experiment [5]; 45.6 µM (inactive) in experiment [6]. The GI50 in experiment [7] was 38.9 µM (inactive); in experiment [8], 32.9 µM (inactive); in experiment [9], 34.9 µM (inactive); in experiment [10], 48.4 µM (inactive); in experiment [11], 41.5 µM (inactive); in experiment [12] it was 56.5 µM (inactive). The GI50 was 80.9 µM (inactive) in experiment [13]; 82.8 µM (inactive) in [15]; 22.5 µM (inactive) in [16]; 24.8 µM (inactive) in [17]; 61.1 µM (inactive) in experiment [18]; 59.8 µM (inactive) in experiment [19].
As for `CC12OC(=O)[C@@]3(O)CCC4C(C[C@H]5O[C@]56CC=CC(=O)[C@]46C)C45OC[C@H]6C(=O)O[C@@H]1C[C@@]6(C)[C@H](C4=O)C23O5` (stereo partly specified), the GI50 is 0.659 µM (active) in experiment [1]; 3.83 µM (inactive) in experiment [2]; 1.84 µM (inactive) in [3]; 2.11 µM (inactive) in experiment [4]; 2.11 µM (inactive) in experiment [5]; 1.57 µM (inactive) in experiment [6]. The GI50 in [7] was 0.578 µM (active); in [8], 0.885 µM (active); in experiment [9] it was 0.673 µM (active); in experiment [10], 2.7 µM (inactive); in experiment [11], 0.746 µM (active); in experiment [12], 0.269 µM (active). Besides, the GI50 in experiment [13] was 0.955 µM (active); in experiment [14] it was 0.309 µM (active); in experiment [15] it was 4.25 µM (inactive); in [16], 0.252 µM (active); in experiment [17], 6.79 µM (inactive); in [18], 0.671 µM (active).
In the case of `COc1ccc(/N=N/c2c(C)c(C#N)c(=S)n(C3OC(CO)C(O)C(O)C3O)c2C)cc1` (stereo unspecified), the GI50 in experiment [1] was 44.2 µM (inactive); in experiment [2], 52.1 µM (inactive); in experiment [3], 36.4 µM (inactive); in experiment [4], 16.9 µM (inactive); in experiment [5], 37.9 µM (inactive); in experiment [6], 26.7 µM (inactive). Besides, the GI50 in experiment [7] was 33 µM (inactive); in experiment [8], 62.8 µM (inactive); in experiment [9], 21.8 µM (inactive); in experiment [11], 35.6 µM (inactive); in experiment [14] it was 45.9 µM (inactive); in [15] it was 52.1 µM (inactive). For the same molecule, the GI50 in experiment [16] was 48.3 µM (inactive); in experiment [17], 83.6 µM (inactive); in [18], 44.1 µM (inactive); in experiment [19], 41.9 µM (inactive).
